Measurements published in PMC6879718, “Mycobacterial OtsA Structures Unveil Substrate Preference Mechanism and Allosteric Regulation by 2-Oxoglutarate and 2-Phosphoglycerate” (mBio, 2019).

Legend:
[1] = biological target: T1, M. thermoresistibile OtsA R213E (Mycolicibacterium thermoresistibile, UniProt G7CGT2, R213E); assay: Effect of allosteric regulators on OtsA activity (R213E); type: biochemical, Mycobacterium thermoresistibile
T1 sequence (G7CGT2 1-486 R213E): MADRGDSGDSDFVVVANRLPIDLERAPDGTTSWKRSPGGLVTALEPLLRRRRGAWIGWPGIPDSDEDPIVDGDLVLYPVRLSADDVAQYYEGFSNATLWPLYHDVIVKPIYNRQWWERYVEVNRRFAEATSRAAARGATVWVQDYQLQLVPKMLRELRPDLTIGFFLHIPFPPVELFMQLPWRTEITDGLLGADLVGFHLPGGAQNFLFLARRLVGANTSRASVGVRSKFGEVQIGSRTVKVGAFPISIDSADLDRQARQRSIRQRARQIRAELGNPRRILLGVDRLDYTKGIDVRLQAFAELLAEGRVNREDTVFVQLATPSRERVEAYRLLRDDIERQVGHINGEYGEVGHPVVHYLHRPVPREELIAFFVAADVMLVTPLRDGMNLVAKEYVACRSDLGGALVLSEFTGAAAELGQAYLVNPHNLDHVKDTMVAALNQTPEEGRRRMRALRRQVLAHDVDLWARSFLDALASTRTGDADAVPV
Procedure: (§1) . All reagents used were obtained from Sigma-Aldrich. The enzymatic reactions (200-μl reaction mixture) were performed at 37°C, and the reaction mixtures contained 50 mM Tris (pH 7.5), 200 mM NaCl, 10 mM MgCl2, 50 mM KCl, 0.3 mM NADH, 2.5 mM phosphoenolpyruvate (PEP), 10 units of pyruvate kinase-lactate dehydrogenase, 0.1 μM enzyme, and various concentrations of G6P and NDP-glucose to determine kinetic parameters.
(§2) […]. All experiments were performed in triplicate in a PHERAstar plate reader (BMG Labtech), and data were analyzed with Prism 5 (GraphPad Software).

[2] = biological target: T2, M. thermoresistibile OtsA R384E (Mycolicibacterium thermoresistibile, UniProt G7CGT2, R384E); assay: Effect of allosteric regulators on OtsA activity (R384E); type: biochemical, Mycobacterium thermoresistibile
T2 sequence (G7CGT2 1-486 R384E): T1 sequence (G7CGT2 1-486 R213E)
Procedure: as §1, §2

## O=C(O)C(CO)OP(=O)(O)O (centres unmarked) [2PG, 2-phosphoglyceric acid]
[1]
  IC50: 12 mM
[2]
  IC50: < 100 mM
